From US20220079912A1, “ANTICANCER FORMULATION” (University of Mississippi, priority 2018, published 2022)

How the values were obtained:
[1] = system: B16 mouse melanoma cells; assay: Cell proliferation / cell survival; assay type: cell-based; conditions: B16, varying concentrations, 48 hours, dose dependent, FIG. 1
Experimental: (§1) Example 1: trans-Gnetin H (GH)—Trans-Gnetin H inhibits cell proliferation. […] B16 mouse melanoma cells, T98G glioblastoma cells, and MDA-MB-231 human breast cancer cells were treated with varying concentrations of GH for 48 hours with cell survival measured. The B16 mouse melanoma cell line was the most sensitive to the anti-proliferative action of GH, perhaps due to the highly glycolytic nature of these cells and/or that they contain wild type p53.

[2] = system: MDA-MB-231 human breast cancer cells; assay: Cell proliferation / cell survival; assay type: cell-based; conditions: MDA-MB-231, varying concentrations, 48 hours, dose dependent, FIG. 1
Experimental: as §1

[3] = system: T98G glioblastoma cells; assay: Cell proliferation / cell survival; assay type: cell-based, human; conditions: varying concentrations, 48 hours, dose dependent, FIG. 1
Experimental: B16 mouse melanoma cells, T98G glioblastoma cells, and MDA-MB-231 human breast cancer cells were treated with varying concentrations of GH for 48 hours with cell survival measured.

[4] = system: MDA-MB-231 human breast cancer cells; assay: Lactic acid accumulation in cell culture medium; assay type: cell-based; conditions: MDA-MB-231, FIG. 2C
Description: During cell survival experiments the acidification of the cell culture medium was inhibited when GH was present. Acidification of the cell culture medium occurs because of the enhanced use of glycolysis by transformed cells (and resulting increase in lactic acid production). This led us to investigate whether GH reduced lactic acid levels in the cell culture medium.

[5] = system: MDA-MB-231 cells; assay: Glucose transport (2-NBDG accumulation); assay type: cell-based, human; conditions: MDA-MB-231, treated for one hour followed by 2-NBDG for one hour
Description: Phloretin, a known glucose transport inhibitor, was used as a positive control. Accumulation of 2-NDGB was inhibited by phloretin by 54% in T98G cells, by 31% in B16 cells and by 74% in MDA-MB-231 cells. The first panel for each cell line represents unstained cells, the second stained with 2-NBDG for one hour, the third treated with GH for one hour followed by 2-NBDG for one hour and the fourth treated with phloretin for one hour followed by 2-NBDG for one hour.

[6] = system: B16 cells; assay: Lactic acid export (intracellular lactic acid levels); assay type: cell-based, mouse; conditions: FIG. 4
Experimental: To prevent the buildup of lactic acid within the cell a family of monocarboxylate transporters (MCT) functions to transport lactic acid out of the cell (10). To determine if GH inhibits lactic acid export from the cell, and in this manner inhibits the accumulation of lactic acid in the cell culture medium, intracellular lactic acid levels were measured. If GH inhibited lactic acid export, treatment of cells with GH would result in the increase in intracellular lactic acid levels. As a positive control the MCT1 inhibitor AZD3965 was used.

[7] = system: BT-549; assay: Combination cytotoxicity with phenformin; assay type: cell-based; conditions: BT-549, data not shown
[8] = system: SK-MEL; assay: Combination cytotoxicity with phenformin; assay type: cell-based; conditions: data not shown
[9] = system: KHOS; assay: Combination cytotoxicity with phenformin; assay type: cell-based; conditions: data not shown
[10] = system: SK-OV3; assay: Combination cytotoxicity with phenformin; assay type: cell-based; conditions: SK-OV3, data not shown
[11] = system: bulk tumor cells from two patients with Temodar (TMZ)-resistant glioblastoma; assay: Combination cytotoxicity with Paw Paw acetogenin extract; assay type: cell-based, human; conditions: GH 4 μM, FIG. 11
Description: (§2) Example 3: Paw Paw Extract.

[12] = system: cancer stem cell (CSC) populations from two patients with Temodar (TMZ)-resistant glioblastoma; assay: as above; assay type: cell-based, human; conditions: GH 4 μM, FIG. 11
Description: as §2

[13] = system: ARRDC4 mRNA; assay: Differential gene expression analysis (RNA-Seq) in T98G cells; assay type: cell-based, human; conditions: 2 hours, GH 8 μM, 2-DG 25 mM, Ph 100, minus = reduced, plus = increase, NC = no change
Description: (§3) GH inhibits expression of TXNIP and ARRDC4 mRNAs. […] Since the transcription factors (MondoA/Mlx complex) regulating the expression of the TXNIP gene is thought to be controlled by intermediates in the upper portion of the glycolytic pathway (12), GH may be negatively impacting this portion of glycolysis. Reduction in the levels of these intermediates by GH would prevent activation of the MondoA/Mlx transcription complex and would result in suppression of TXNIP transcription and TXNIP mRNA levels. Both of these gene products (TXNIP and ARRDC4) are thought to suppress glucose transport by enhancing degradation of glucose transporters (12).

[14] = system: TXNIP mRNA; assay: as above; assay type: cell-based, human; conditions: 2 hours, GH 8 μM, 2-DG 25 mM, Ph 100, minus = reduced, plus = increase, NC = no change
Description: as §3

[15] = system: TXNIP protein levels; assay: Western blot of TXNIP protein, MDA-MB-231 cell line; assay type: cell-based, human; conditions: FIG. 16, FIG. 18
Description: AMPK activation has been previously shown to phosphorylate and cause the degradation of TXNIP during energy stress (13).

[16] = system: T98G glioblastoma cells; assay: Colony formation assay, combination with DHEA; assay type: cell-based, human; conditions: 12 h (other inhibitors 24 h), FIG. 19
Experimental: GH, a glycolysis inhibitor, is cytotoxic to human tumor cells when used in combination with a Glucose-6-Phosphate Dehydrogenase inhibitor, dehydroepiandrosterone, (DHEA). To compensate for high ROS levels, cancer cells increase glycolysis and pentose phosphate cycle to provide reducing equivalents (NADH and NADPH) to neutralize hydro peroxides (15). […] The other glycolysis inhibitors tested in combination with DHEA were ineffective even at 24 h.

[17] = system: MDA-MB-231 breast cancer cells; assay: Colony formation assay, combination with DHEA; assay type: cell-based, human; conditions: MDA-MB-231, 24 h, FIG. 20
[18] = system: PA-1 Ovarian cancer; assay: Colony formation assay, combination with DHEA; assay type: cell-based, human; conditions: PA-1, 24 h, FIG. 20
[19] = system: SKOV-3 ovarian cancer; assay: Colony formation assay, combination with DHEA; assay type: cell-based, human; conditions: SKOV-3, 24 h, FIG. 20
[20] = system: Mia-PACA pancreatic cancer; assay: Colony formation assay, combination with DHEA; assay type: cell-based, human; conditions: 24 h, FIG. 20
[21] = system: U87MG Glioma cells; assay: Colony formation assay, combination with DHEA; assay type: cell-based, human; conditions: 24 h, FIG. 20
[22] = system: BNC6 patient derived Glioblastoma cells; assay: Colony formation assay, combination with DHEA; assay type: cell-based, human; conditions: BNC6, 24 h, FIG. 20
[23] = system: cancer stem cells (CSCs) grown from BNC6 patient derived Glioblastoma cells; assay: Cell viability by Trypan Blue exclusion cell count, combination with DHEA; assay type: cell-based, human; conditions: 24 h, FIGS. 22A-B

SMILES: Oc1ccc(/C=C/c2c3c(cc4c2[C@H](c2cc(O)cc(O)c2)[C@@H](c2ccc(O)cc2)O4)O[C@H](c2ccc(O)cc2)[C@H]3c2cc(O)cc(O)c2)cc1 (relative stereo) [GH, trans-Gnetin H]
- inhibition of cell proliferation (cell survival) [1]: inhibits the proliferation
- inhibition of cell proliferation (cell survival) [2]: inhibits the proliferation
- inhibition of cell proliferation (cell survival) [3]: inhibits the proliferation
- lactic acid production [4]: inhibits lactic acid production
- effect on accumulation of 2-NBDG (glucose transport) [5]: did not influence the accumulation
- effect on intracellular lactic acid [6]: did not increase intracellular lactic acid
- synergistic cytotoxicity with phenformin [7]: synergistically cytotoxic
- synergistic cytotoxicity with phenformin [8]: synergistically cytotoxic
- synergistic cytotoxicity with phenformin [9]: synergistically cytotoxic
- synergistic cytotoxicity with phenformin [10]: synergistically cytotoxic
- synergistic cytotoxicity in combination with acetogenin extract from Paw Paw (PP-2 μg/ml) [11]: synergistically cytotoxic
- synergistic cytotoxicity in combination with acetogenin extract from Paw Paw (PP-2 μg/ml) [12]: synergistically cytotoxic
- ARRDC4 mRNA fold change [13]: −6 fold
- TXNIP mRNA fold change [14]: −88 fold
- TXNIP protein levels, in combination with Ph [15]: reduction of TXNIP protein levels
- TXNIP protein levels, agent alone ([15]; GH 8 μM 6 hrs or 3 hrs, 2-DG 25 mM, OXA 25 mM, BPX 25 μM, DCA 25 mM, 6 hr): dramatic reduction in the levels of TXNIP protein
- cytotoxicity in combination with DHEA (cell staining) [16]: rapidly cytotoxic
- cytotoxicity in combination with DHEA (cell staining) [17]: cytotoxic
- cytotoxicity in combination with DHEA (cell staining) [18]: cytotoxic
- cytotoxicity in combination with DHEA (cell staining) [19]: cytotoxic
- cytotoxicity in combination with DHEA (cell staining) [20]: cytotoxic
- cytotoxicity in combination with DHEA (cell staining) [21]: cytotoxic
- cytotoxicity in combination with DHEA (cell staining) [22]: cytotoxic
- cytotoxicity in combination with DHEA (percentage of cell viability) [23]: cytotoxic
